The test deals with P388 leukemia ip, CD2F1 mice, survival T/C. Briefly: NCI In Vivo Anticancer Drug Screen. Data for tumor model P388 Leukemia (intraperitoneal) in CD2F1 (CDF1) mice. The following applies: endpoint: median survival time, higher = longer survival. The procedure:
The antitumor activity of compounds was measured in mice bearing transplantable tumors. Survival or tumor size were measured and the results are expressed as the measurement made in the treated group (T) divided by the measurement made in the vehicle treated control group (C). The tumor model used in this assay is P388 Leukemia (intraperitoneal) in CD2F1 (CDF1) mice

Where [1] appears, read: dose: 100.0 mg/kg/injection, schedule: Q04DX003 (ip), vehicle: saline.
[2] abbreviates: dose: 200.0 mg/kg/injection, schedule: Q04DX003 (ip), vehicle: saline.
Where [3] appears, read: dose: 100.0 mg/kg/injection, schedule: Q01DX001 (ip), vehicle: saline with Tween-80.
Setting [4] is: dose: 200.0 mg/kg/injection, schedule: Q01DX001 (ip), vehicle: saline with Tween-80.
The mark [5] stands for this setting: dose: 400.0 mg/kg/injection, schedule: Q01DX001 (ip), vehicle: saline with Tween-80.
The mark [6] stands for this setting: dose: 60.0 mg/kg/injection, schedule: Q01DX005 (ip), vehicle: saline with Tween-80.
[7] abbreviates: dose: 50.0 mg/kg/injection, schedule: Q01DX005 (ip), vehicle: saline with Tween-80.
[8] abbreviates: dose: 100.0 mg/kg/injection, schedule: Q01DX005 (ip), vehicle: saline with Tween-80.
[9] abbreviates: dose: 200.0 mg/kg/injection, schedule: Q01DX005 (ip), vehicle: saline with Tween-80.
Where [10] appears, read: dose: 12.5 mg/kg/injection, schedule: Q04DX002 (ip), vehicle: saline with Tween-80.
Setting [11] is: dose: 25.0 mg/kg/injection, schedule: Q04DX002 (ip), vehicle: saline with Tween-80.
[12] abbreviates: dose: 50.0 mg/kg/injection, schedule: Q04DX002 (ip), vehicle: saline with Tween-80.
[13] abbreviates: dose: 120.0 mg/kg/injection, schedule: Q01DX005 (ip), vehicle: saline with Tween-80.
Where [14] appears, read: dose: 240.0 mg/kg/injection, schedule: Q01DX005 (ip), vehicle: saline with Tween-80.
[15] abbreviates: dose: 6.25 mg/kg/injection, schedule: Q01DX009 (ip), vehicle: saline with Tween-80.
The mark [16] stands for this setting: dose: 12.5 mg/kg/injection, schedule: Q01DX009 (ip), vehicle: saline with Tween-80.
Where [17] appears, read: dose: 25.0 mg/kg/injection, schedule: Q01DX009 (ip), vehicle: saline with Tween-80.
The mark [18] stands for this setting: dose: 50.0 mg/kg/injection, schedule: Q01DX009 (ip), vehicle: Klucel (hydroxypropylcellulose) (HPC).
Where [19] appears, read: dose: 100.0 mg/kg/injection, schedule: Q01DX009 (ip), vehicle: Klucel (hydroxypropylcellulose) (HPC).
Where [20] appears, read: dose: 200.0 mg/kg/injection, schedule: Q01DX009 (ip), vehicle: Klucel (hydroxypropylcellulose) (HPC).

“And” between values parts separate entries of the source, which are not always exact repeats. Equal values may be shown once. Inconclusive results and toxic doses are left out.

`COCC1OC(OC2C3=C(C(C)C)CCC3(C)/C=C3\C(CCC3(O)COC)C(C)C2O)C(O)C2OC3OC12OC3(C)C1CO1` (stereo not given): the T/C is, setting by setting: (dose: 1.5 mg/kg/injection, schedule: Q01DX009 (ip), vehicle: Klucel (hydroxypropylcellulose) (HPC)) 96 % of control; (dose: 3.0 mg/kg/injection, schedule: Q01DX009 (ip), vehicle: Klucel (hydroxypropylcellulose) (HPC)) 113 % of control; (dose: 6.0 mg/kg/injection, schedule: Q01DX009 (ip), vehicle: Klucel (hydroxypropylcellulose) (HPC)) 91 % of control; (dose: 12.0 mg/kg/injection, schedule: Q01DX009 (ip), vehicle: Klucel (hydroxypropylcellulose) (HPC)) 97 % of control; (dose: 24.0 mg/kg/injection, schedule: Q01DX009 (ip), vehicle: Klucel (hydroxypropylcellulose) (HPC)) 100 % of control.
On to `CSc1nc(N)c(C#N)c(SC)c1C#N`, for which the T/C is 98 % of control (dose: 50.0 mg/kg/injection, schedule: Q04DX003 (ip), vehicle: saline); 112 % of control under setting [1]; 101 % of control under setting [2].
In the case of `O=[N+]([O-])c1ccc(N/N=C(\CBr)c2ccccc2)c([N+](=O)[O-])c1`, the T/C reads like this: under setting [3], 91 % of control; under setting [4], 87 % of control; under setting [5], 87 % of control.
Turning to `O=C1ON=C(COc2ccccc2)/C1=C\c1ccc(Cl)cc1`, the T/C by setting is: (dose: 15.0 mg/kg/injection, schedule: Q01DX005 (ip), vehicle: saline with Tween-80) 105 % of control; (dose: 30.0 mg/kg/injection, schedule: Q01DX005 (ip), vehicle: saline with Tween-80) 101 % of control; under setting [6], 104 % of control.
In the case of `CCC(CC)C(Nc1nncs1)Nc1nncs1`, the T/C reads like this: under setting [7], 90 % of control; under setting [8], 112 % of control; under setting [9], 116 % of control.
Turning to `Cc1c2ccncc2c(CNC(=O)CCCC(=O)NCc2c3cnccc3c(C)c3c2c2ccccc2n3C)c2c3ccccc3n(C)c12`, the T/C reads like this: (dose: 6.25 mg/kg/injection, schedule: Q04DX002 (ip), vehicle: saline with Tween-80) 104 % of control; under setting [10], 104 % of control; under setting [11], 102 % of control; under setting [12], 104 % of control.
For the compound `CCCN(C)C12CN3CN(CN(C3)C1)C2`, the T/C under setting [1] was 106 % of control; the T/C under setting [2] was 95 % of control; the T/C (dose: 400.0 mg/kg/injection, schedule: Q04DX003 (ip), vehicle: saline) is 100 % of control.
Turning to `C=CCN(CC=C)c1nc(N)c2cc(OC)c(OC)cc2n1`, the T/C is 100 % of control (dose: 37.5 mg/kg/injection, schedule: Q01DX009 (ip), vehicle: suspension in saline) and 106 % of control (dose: 75.0 mg/kg/injection, schedule: Q01DX009 (ip), vehicle: suspension in saline).
Turning to `NC(=O)C1OC(n2cnc3c(N)ncnc32)C(O)C1O` (stereo not given), the T/C reads like this: (dose: 1.56 mg/kg/injection, schedule: Q01DX005 (ip), vehicle: saline with Tween-80) 100 % of control and 104 % of control; (dose: 3.13 mg/kg/injection, schedule: Q01DX005 (ip), vehicle: saline with Tween-80) 105 % of control and 114 % of control; (dose: 6.25 mg/kg/injection, schedule: Q01DX005 (ip), vehicle: saline with Tween-80) 109 % of control and 115 % of control and 121 % of control.
In the case of `O=C(Nc1ccc(CCC2=NCCCN2)cc1)c1ccc(C(=O)Nc2ccc(CCC3=NCCCN3)cc2)cc1`, the T/C (dose: 25.0 mg/kg/injection, schedule: Q01DX005 (ip), vehicle: saline with Tween-80) was 115 % of control and the T/C under setting [7] was 113 % of control.
In the case of `CN(C)P1P(N(C)C)P(N(C)C)P1N(C)C` (stereo not given), the T/C by setting is: under setting [6], 97 % of control; under setting [13], 97 % of control; under setting [14], 95 % of control.
On to `C[Si](C)(OC(=O)N(CCCl)CCCl)O[Si](C)(C)OC(=O)N(CCCl)CCCl`, for which the T/C was 108 % of control under setting [15]; 124 % of control under setting [16]; 165 % of control under setting [17]; 115 % of control (dose: 50.0 mg/kg/injection, schedule: Q01DX009 (ip), vehicle: saline with Tween-80).
With `Cc1nc(N)nc(N)c1N1CCN(c2ccc(C(=O)NC(C(=O)O)C(=O)O)cc2)CC1`, the T/C reads like this: (dose: 3.75 mg/kg/injection, schedule: Q01DX005 (ip), vehicle: Klucel + Tween-80) 184 % of control; (dose: 7.5 mg/kg/injection, schedule: Q01DX005 (ip), vehicle: Klucel + Tween-80) 215 % of control; (dose: 15.0 mg/kg/injection, schedule: Q01DX005 (ip), vehicle: Klucel + Tween-80) 87 % of control.
As for `Cc1ccnc(NS(=O)(=O)c2ccc(NCc3c4ccccc4nc4cc(Cl)ccc34)cc2)n1`, the T/C under setting [6] was 99 % of control, the T/C under setting [13] is 90 % of control and the T/C under setting [14] was 86 % of control.
For `COC(=O)Nc1cc2c(cc1[N+](=O)[O-])OCCOCCOCCOCCO2`, the T/C reads like this: under setting [7], 100 % of control; under setting [8], 98 % of control; under setting [9], 101 % of control.
Take `COc1ccc(Nc2ncnc3ccccc23)cc1CN(CCCl)CCCl`: the T/C (dose: 100.0 mg/kg/injection, schedule: Q01DX001 (ip), vehicle: Klucel (hydroxypropylcellulose) (HPC)) is 100 % of control and the T/C (dose: 200.0 mg/kg/injection, schedule: Q01DX001 (ip), vehicle: Klucel (hydroxypropylcellulose) (HPC)) was 90 % of control.
With `CC12CC3CC(C1)CC(Br)(C3)C2`, the T/C runs as follows: under setting [18], 103 % of control and 111 % of control; under setting [19], 100 % of control; under setting [20], 100 % of control.
In the case of `COC(=O)Nc1cn2nc(N)sc2n1`, the T/C under setting [3] is 102 % of control, the T/C under setting [4] is 101 % of control and the T/C under setting [5] was 99 % of control.
Consider `CC12CC[C]([Hg][I])(CC1)C2(C)C`, for which the T/C was 105 % of control under setting [15], 112 % of control under setting [16] and 107 % of control under setting [17].
With `CCOC(=O)C1C(C(=O)c2ccccc2)C12C(=O)N(C)c1ccccc12` (stereo not given), the T/C reads like this: under setting [10], 103 % of control; under setting [11], 107 % of control; under setting [12], 103 % of control.
For the compound `O=c1cc(-c2ccc(O)cc2)oc2cc(O)c(C3OC(CO)C(O)C(O)C3OC3OC(CO)C(O)C(O)C3O)c(O)c12` (stereo not given), the T/C (dose: 25.0 mg/kg/injection, schedule: Q01DX009 (ip), vehicle: Klucel (hydroxypropylcellulose) (HPC)) is 102 % of control; the T/C under setting [18] was 107 % of control; the T/C under setting [19] was 105 % of control; the T/C under setting [20] was 99 % of control.

The values above are taken from PubChem BioAssay AID330 (DTP/NCI, 2004).
